According to the supplement of paper PMC10307832:

Key:
Test in all cases: relative viability (nuclei count vs DMSO), 5 days (fraction); higher = more cells survive
Ricolinostat + Lapatinib = compound: O=C(CCCCCCNC(=O)c1cnc(N(c2ccccc2)c2ccccc2)nc1)NO [Ricolinostat] + CS(=O)(=O)CCNCc1ccc(-c2ccc3ncnc(Nc4ccc(OCc5cccc(F)c5)c(Cl)c4)c3c2)o1 [Lapatinib] (partner 2 µM)
Outline: (§1)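 A single step with final 0.05% Triton X-100, 1% formaldehyde and 1 ug/ml Hoechst fixed the cells and stained nuclei 5 days after treatment. Lung cancer cell lines in 1536-well plates had been treated by pin tool the day after seeding with one drug alone or a fixed anchor-drug dose plus five library-drug doses (not always all listed) in √10 steps, and nuclei were counted on 4× images. Relative viability is the ratio of nuclei in treated wells to nuclei in vehicle wells, taken as the median of duplicate plates.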

[1] = compound: O=C(CCCCCCNC(=O)c1cnc(N(c2ccccc2)c2ccccc2)nc1)NO [Ricolinostat] + CC(C)C[C@H](NC(=O)[C@H](Cc1ccccc1)NC(=O)c1cnccn1)B(O)O [Bortezomib] (partner 0.002 µM)
Outline: as §1

TGX 221 + Pemetrexed = compound: CC1=CN2C(=O)C=C(N=C2C(=C1)C(C)NC3=CC=CC=C3)N4CCOCC4 [TGX 221] + Nc1nc2[nH]cc(CCc3ccc(C(=O)N[C@@H](CCC(=O)O)C(=O)O)cc3)c2c(=O)[nH]1 [Pemetrexed] (partner 0.2 µM)
Outline: as §1

[2] = compound: O=C(CCCCCCNC(=O)c1cnc(N(c2ccccc2)c2ccccc2)nc1)NO [Ricolinostat] + Cc1cc(Nc2cc(N3CCN(C)CC3)nc(Sc3ccc(NC(=O)C4CC4)cc3)n2)n[nH]1 [Tozasertib] (partner 0.1 µM)
Outline: as §1

Cell Line	relative viability (Ricolinostat + Lapatinib; first compound 0.08 µM)	relative viability (Ricolinostat + Lapatinib; first compound 0.253 µM)	relative viability (Ricolinostat + Lapatinib; first compound 0.8 µM)	relative viability (Ricolinostat + Lapatinib; first compound 2.53 µM)	relative viability ([1]; first compound 0.08 µM)	relative viability ([1]; first compound 0.253 µM)	relative viability ([1]; first compound 0.8 µM)	relative viability ([1]; first compound 2.53 µM)	relative viability (TGX 221 + Pemetrexed; first compound 0.08 µM)	relative viability (TGX 221 + Pemetrexed; first compound 0.253 µM)	relative viability (TGX 221 + Pemetrexed; first compound 0.8 µM)	relative viability (TGX 221 + Pemetrexed; first compound 2.53 µM)	relative viability (TGX 221 + Pemetrexed; first compound 8 µM)	relative viability ([2]; first compound 0.08 µM)	relative viability ([2]; first compound 0.253 µM)	relative viability ([2]; first compound 0.8 µM)	relative viability ([2]; first compound 2.53 µM)
NCI-H647	0.915	1.11	1.07	0.627	0.877	1.06	0.948	0.421	0.15	0.162	0.18	0.163	0.146	0.315	0.195	0.27	0.206
NCI-H650	–	0.888	0.734	0.504	–	0.788	0.544	0.23	0.87	0.894	0.919	0.882	0.926	0.671	0.675	0.673	0.467
NCI-H661	–	0.544	0.542	0.72	–	0.743	0.997	1.19	0.878	0.919	0.955	0.955	0.853	0.354	0.364	0.288	0.281
NCI-H838	0.683	1.08	0.955	0.873	0.767	0.973	0.943	0.756	0.255	0.232	0.235	0.232	0.231	0.255	0.275	0.238	0.212
NCI-H1355	–	1.01	1	0.863	–	1.23	1.17	1.06	1.03	1.02	1.05	0.998	0.893	0.6	0.558	0.483	0.477
NCI-H1437	0.705	0.767	0.714	0.642	0.561	0.513	0.479	0.256	0.347	0.294	0.357	0.329	0.259	0.341	0.4	0.367	0.315
NCI-H1650	0.577	0.72	0.6	0.752	0.184	0.195	0.193	0.205	0.394	0.408	0.324	0.336	0.28	0.428	0.431	0.265	0.256
NCI-H1651	0.6	0.702	0.731	0.636	0.941	0.865	0.918	0.984	0.54	0.628	0.438	0.517	0.586	0.658	0.744	0.633	0.436
NCI-H1666	0.564	0.65	0.542	0.374	0.598	0.97	0.724	0.579	0.783	0.852	0.839	0.802	0.856	0.544	0.591	0.489	0.358
NCI-H1734	1	1.05	1.02	0.891	0.758	0.954	0.958	0.827	0.459	0.399	0.414	0.436	0.395	0.241	0.29	0.231	0.292
